# Data published in patent US11375716B2, “Acetyl-CoA carboxylase modulators” (Monsanto Technology LLC, priority 2013, dated 2022).
# Like-named read-outs stand apart in the source and are kept apart here.
# Assays:
# [1] = biological target: Ustilago maydis acetyl CoA carboxylase (ACCase) (Ustilago maydis, UniProt A0A0D1DYD5); experiment: ACCase enzymatic assay (PK/LDH-coupled, NADH OD340); assay type: biochemical
# Experimental: Ustilago maydis acetyl CoA carboxylase (ACCase) was cloned, expressed, and purified as described (Weatherly et al, Biochem. J., 2004) and the test compounds were tested in a 96-well plate format. Primary in vitro screening consisted of obtaining dose response data at 100, 33, 10, and 1 μM inhibitor. Actives in the primary screen were re-tested to establish IC50 values.
# Direct detection of the conversion of acetyl CoA to malonyl CoA by ACCase was not feasible, but during this process ATP is converted to ADP which allowed for detection through a standard reaction coupling with ADP recycling to the oxidation of NADH. Thus, ACCase activity was measured via kinetic OD340 measurements of the conversion of NADH to NAD in a coupled reaction involving the conversion of phosphoenolpyruvate (PEP) to lactate.
# The complete 200 ul reaction mixture contained 52.5 mM HEPES (pH8), 2.625 mM MgCl2, 1 mM ATP, 0.525 mM DTT, 11 mM NaHCO3, 1% DMSO with or without inhibitor, lx pyruvate kinase/lactate dehydrogenase (PK/LDH), 0.3 mM NADH, 0.5 mM PEP, and 5 μg ACCase. The reactions were incubated at 30° C. for 10 minutes and then initiated by the addition of 0.33 mM acetyl CoA. The initiated reactions were read immediately via plate reader at OD340 and kinetic readings were acquired every 20 s for 15 minutes while keeping the temperature at 30° C.
# A slope of the kinetic curve was determined by using the 2 to 7 minute data which was then calculated as percent inhibition relative to the no inhibitor control.
# The primary screens were conducted in duplicate and the IC50's conducted in triplicate. Averages were reported along with standard deviation calculation to generate error bars.
# Each plate contained its own controls and consisted of a DMSO only control, 5-fold titration series of soraphen from 2 μM to 3.2 nM, and an ADP coupled reaction control.
# In order to effectively screen out non-specific modulators of pyruvate kinase and lactate dehydrogenase (the coupled portion of the reaction), a PK/LDH inhibition test was developed. The complete 200 μl reaction mixture contained 52.5 mM HEPES (pH8), 2.625 mM MgCl2, 0.525 mM DTT, 11 mM NaHCO3, 1% DMSO with or without inhibitor, 1× pyruvate kinase/lactate dehydrogenase (PK/LDH), 0.3 mM NADH, and 0.5 mM PEP. The reactions were incubated at 30° C. for 10 minutes and then initiated by the addition of 66 μM ADP. The initiated reactions were read immediately via plate reader at OD340 and kinetic readings were acquired every 20 s for 15 minutes while remaining at 30° C.
# A slope of the kinetic curve was determined by using the 2 to 7 minute data which was then calculated as percent inhibition relative to the no inhibitor control. Those compounds which had no significant PK/LDH inhibition at or above the IC50 in the ACCase assay, were considered to be valid modulators of only ACCase.
# Botrytis cinerea = experiment: Fungal growth inhibition assay, B. cinerea; assay type: cell-based
# Source text: Spores were isolated from previously sub-cultured plates of Botrytis cinerea, Phytophthora capsici, Fusarium moniliforme, Fusarium viguliforme, Collectotrichum graminicola, and Diplodia maydis. All spores were filtered and collected in a sterile glass bowl to isolate the spores from the mycelia. The isolation and sub-culture plate condition for each pathogen is described below.
# Spore isolation for B. cinerea: A 2-3 week old V8 (17%)+CaCO3 (3 g/L)+20 g agar plate was removed from room temperature and the mycelia were treated with 5-10 ml of filter sterilized Triton X 100 (0.05%). The mycelia were scraped to re-suspend the spores. The spores were then collected in a sterile filter bowl containing a fluted piece of filter paper and poured into a conical tube.
# After spore isolation, pathogen spores were counted on a hemocytometer to calculate the spores/ml. In 17% V8 liquid media containing 3 g/L CaCO3, isolated spores were diluted to individual concentrations based on the growth curves at 48 hours of each pathogen. […]
# In a 96-well plate the spore solution, chemistries, and controls were combined to make the final solution concentrations mentioned above. Upon addition of the chemistry, an OD600 reading was done to assess chemical precipitation. […] Plate readings were repeated at 24 and 48 hrs. […]
# [2] = Table 1A, read-out: ACCase Inhibitory Activity IC50
# [3] = Table 1B, racemates and single enantiomers, read-out: ACCase Inhibitory Activity of Racemic Mixtures and Single Enantiomers IC50
# Chain of Ustilago maydis acetyl CoA carboxylase (ACCase) (A0A0D1DYD5 1-2185): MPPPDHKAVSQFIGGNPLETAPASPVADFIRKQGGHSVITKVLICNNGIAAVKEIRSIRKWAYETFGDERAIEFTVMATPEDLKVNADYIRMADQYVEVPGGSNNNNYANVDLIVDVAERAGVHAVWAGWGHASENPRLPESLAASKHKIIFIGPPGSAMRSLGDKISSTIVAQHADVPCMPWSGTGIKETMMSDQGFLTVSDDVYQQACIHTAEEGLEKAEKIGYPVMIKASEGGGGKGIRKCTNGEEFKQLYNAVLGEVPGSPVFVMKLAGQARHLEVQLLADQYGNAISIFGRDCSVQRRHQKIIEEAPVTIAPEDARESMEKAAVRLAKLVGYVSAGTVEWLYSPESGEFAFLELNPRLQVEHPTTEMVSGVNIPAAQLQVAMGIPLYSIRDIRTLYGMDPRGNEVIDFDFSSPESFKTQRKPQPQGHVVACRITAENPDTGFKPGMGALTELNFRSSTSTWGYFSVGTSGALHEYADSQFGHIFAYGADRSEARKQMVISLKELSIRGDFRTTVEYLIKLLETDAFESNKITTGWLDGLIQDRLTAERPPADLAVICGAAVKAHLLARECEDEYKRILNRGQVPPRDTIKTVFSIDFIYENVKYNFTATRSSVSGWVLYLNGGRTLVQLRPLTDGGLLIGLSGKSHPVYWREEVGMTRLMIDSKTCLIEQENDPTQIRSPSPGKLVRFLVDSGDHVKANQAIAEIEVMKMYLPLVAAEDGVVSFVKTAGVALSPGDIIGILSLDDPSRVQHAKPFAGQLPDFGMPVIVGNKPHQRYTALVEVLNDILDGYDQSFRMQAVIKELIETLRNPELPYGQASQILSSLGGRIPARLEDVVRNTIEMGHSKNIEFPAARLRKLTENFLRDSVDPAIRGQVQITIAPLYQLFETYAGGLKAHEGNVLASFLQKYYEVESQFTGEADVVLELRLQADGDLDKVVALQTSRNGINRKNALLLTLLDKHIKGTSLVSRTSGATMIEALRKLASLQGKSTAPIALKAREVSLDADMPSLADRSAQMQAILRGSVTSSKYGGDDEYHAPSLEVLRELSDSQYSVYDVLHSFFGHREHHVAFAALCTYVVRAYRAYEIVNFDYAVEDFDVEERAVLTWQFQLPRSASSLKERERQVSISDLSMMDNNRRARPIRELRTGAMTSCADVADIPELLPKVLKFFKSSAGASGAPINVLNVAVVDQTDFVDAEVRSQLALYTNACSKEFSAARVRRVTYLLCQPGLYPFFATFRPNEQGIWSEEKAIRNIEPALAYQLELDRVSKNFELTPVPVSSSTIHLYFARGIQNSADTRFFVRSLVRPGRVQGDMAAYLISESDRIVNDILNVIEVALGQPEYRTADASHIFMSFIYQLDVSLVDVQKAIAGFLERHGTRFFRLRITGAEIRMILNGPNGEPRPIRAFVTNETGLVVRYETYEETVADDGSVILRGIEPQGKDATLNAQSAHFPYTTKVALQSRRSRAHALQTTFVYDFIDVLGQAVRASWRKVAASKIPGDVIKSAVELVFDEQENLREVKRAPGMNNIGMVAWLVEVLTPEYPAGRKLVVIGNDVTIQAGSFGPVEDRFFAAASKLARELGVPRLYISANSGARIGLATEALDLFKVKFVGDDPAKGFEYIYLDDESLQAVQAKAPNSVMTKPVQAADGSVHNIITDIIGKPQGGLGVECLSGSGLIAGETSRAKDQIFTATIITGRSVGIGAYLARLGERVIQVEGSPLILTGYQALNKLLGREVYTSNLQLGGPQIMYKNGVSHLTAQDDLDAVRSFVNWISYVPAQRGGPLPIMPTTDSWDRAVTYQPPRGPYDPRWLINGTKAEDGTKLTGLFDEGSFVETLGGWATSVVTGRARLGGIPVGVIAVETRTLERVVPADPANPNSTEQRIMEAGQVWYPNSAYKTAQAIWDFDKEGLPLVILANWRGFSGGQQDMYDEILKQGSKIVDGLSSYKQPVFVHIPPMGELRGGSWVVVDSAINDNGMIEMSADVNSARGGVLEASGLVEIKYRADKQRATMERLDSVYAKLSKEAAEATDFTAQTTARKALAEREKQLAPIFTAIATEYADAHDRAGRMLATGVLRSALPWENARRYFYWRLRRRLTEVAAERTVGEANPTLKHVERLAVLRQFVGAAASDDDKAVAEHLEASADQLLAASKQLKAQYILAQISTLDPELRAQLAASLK
Compound,"IC50 [1, 2]",B. cinerea % growth inhibition at 48 hours (Botrytis cinerea; 2 ppm),B. cinerea % growth inhibition at 48 hours (Botrytis cinerea; 10 ppm),"IC50 [1, 3]"
2-((3-cyano-4-(4-methoxyphenyl)-6-(1-oxidothiophen-2-yl)pyridin-2-yl)oxy)-2-phenylacetic acid [Formula Ia-xxviii],196 nM,14%,27%,–
"N#Cc1c(-c2cccs2)cc(-c2cccs2)nc1SC(C(=O)O)c1ccccc1 (racemic) [Formula Ia-iii, 2-((3-cyano-4,6-di(thiophen-2-yl)pyridin-2-yl)thio)-2-phenylacetic acid]",616 nM,–,–,439 nM
"COc1ccc(-c2cc(-c3cccs3)nc(SC(C(=O)O)c3ccccc3)c2C#N)cc1 (racemic) [Formula Ia-xiv, 2-((3-cyano-4-(4-methoxyphenyl)-6-(thiophen-2-yl)pyridin-2-yl)thio)-2-phenylacetic acid]",60 nM,–,–,–
"N#Cc1c(C(F)(F)F)cc(-c2cccs2)nc1S[C@H](C(=O)O)c1ccccc1 (single isomer, unassigned) [Formula Ia-ii-e2, 2-((3-cyano-6-(thiophen-2-yl)-4-(trifluoromethyl)pyridin-2-yl)thio)-2-phenylacetic acid]",–,–,–,1210 nM
